Data as given in US20080038381A1, “APPLICATION OF GREEN TEA EXTRACT AND ITS MAJOR COMPONENTS IN KELOID SCAR THERAPY” (UNIVERSITY OF SOUTHERN CALIFORNIA, priority 2006, published 2008).

How the values were obtained:
Assay type in all cases: cell-based, human
[1] = test system: phosphorylated Akt; assay: HMC-1-stimulated phosphorylated Akt level in keloid fibroblasts (Western blot); settings: keloid fibroblasts pretreated 1 h, co-culture 1 h
Experimental: (§1) FIG. 5 Effects of GTE and EGCG on mast cell-stimulated activation of ERK1/2 and Akt, phosphorylation of p70S6K and 4E-BP-1 in keloid fibroblasts. Keloid fibroblasts (KFs) were pretreated with different concentrations of GTE or EGCG, or various kinase inhibitors for 1 h, followed by direct co-culture with the same number of HMC-1 cells under normal culturing condition for 1 h. Equal amount of cell lysates was subjected to Western blot analysis with an antibodies against ERK1/2 (a), p38 MAPK (b), Akt, p70S6K and 4E-BP1 (c) as described in Materials and Methods. Data presented are representative of results from 3 independent experiments. Keloid fibroblasts (1×10^5/well) were seeded on the bottom of a 6-well plate and maintained at normal culturing conditions for at least 24 h. Different densities of HMC-1 cells were seeded on top of the monolayer of fibroblasts and co-cultured for different time intervals based on experimental purposes. […] Total protein concentrations of whole cell lysates were determined using BioRad BCA method (PIERCE, Rockford, Ill.). […]

[2] = test system: pro-COL1A1 and COL1A2 gene mRNA; assay: COL1A1 and COL1A2 mRNA levels by RT-PCR in co-cultured keloid fibroblasts and HMC-1 cells; settings: pretreated 1 h, co-culture with HMC-1 cells 24 h
Experimental: (§2) Keloid fibroblasts (1×10^5/well) were seeded on the bottom of a 6-well plate and maintained at normal culturing conditions for at least 24 h. Different densities of HMC-1 cells were seeded on top of the monolayer of fibroblasts and co-cultured for different time intervals based on experimental purposes. To observe the effects of GTE and EGCG or various specific kinase inhibitors on type I collagen expression in keloid fibroblasts co-cultured with HMC-1 cells, fibroblasts at about 80% confluence were pretreated with different concentrations of GTE, EGCG, or various kinase inhibitors for 1 h followed by co-culturing with the same cell density of HMC-1 cells (1:1) under normal culturing conditions for indicated time periods. Cell lysates were prepared for Western blot analysis.
Total RNA was isolated from […] using TRIZOL® Reagent (Invitrogen). RT-PCR analysis of COL1A1, COL1A2 and β-actin mRNA levels was performed using the One-step RT-PCR Kit (QIAGEN, Valencia, Calif.) with primers specific to COL1A1: forward primer 5′-[…]-3′ and reverse primer 5′-[…]-3′; primers for COL1A2: forward primer 5′-[…]-3′ and reverse primer 5′-[…]-3′ (Stefanovic et al., 2005); primers for […]1-actin: forward primer 5′-[…]-3′ and reverse primer 5′-[…]-3′. All the primers were synthesized by Microchemical Core Facility, Norris Cancer Center of University of Southern California.

[3] = test system: phosphorylated ERK1/2; assay: HMC-1-stimulated phosphorylated ERK1/2 level in keloid fibroblasts (Western blot); settings: keloid fibroblasts pretreated 1 h, co-culture 1 h
Experimental: (§3) FIG. 5 Effects of GTE and EGCG on mast cell-stimulated activation of ERK1/2 and Akt, phosphorylation of p70S6K and 4E-BP-1 in keloid fibroblasts. Keloid fibroblasts (KFs) were pretreated with different concentrations of GTE or EGCG, or various kinase inhibitors for 1 h, followed by direct co-culture with the same number of HMC-1 cells under normal culturing condition for 1 h. Equal amount of cell lysates was subjected to Western blot analysis with an antibodies against ERK1/2 (a), p38 MAPK (b), Akt, p70S6K and 4E-BP1 (c) as described in Materials and Methods. Data presented are representative of results from 3 independent experiments.
(§4) Keloid fibroblasts (1×10^5/well) were seeded on the bottom of a 6-well plate and maintained at normal culturing conditions for at least 24 h. Different densities of HMC-1 cells were seeded on top of the monolayer of fibroblasts and co-cultured for different time intervals based on experimental purposes. […]
(§5) To determine type I collagen, and phosphorylated ERK1/2 and Akt levels, cells were solubilized in lysis buffer (50 mM Tris-HCl, pH 7.5, 150 mM NaCl, 5 mM EDTA, 200 μM Na3VO4, 50 mM NaF, 0.5% Triton X-100) supplemented with 10 mM dithiothreitol (DTT), 200 FM phenylmethylsulfonyl fluoride (PMSF) and protease inhibitor cocktails (Sigma). Total protein concentrations of whole cell lysates were determined using BioRad BCA method (PIERCE, Rockford, Ill.). […]

[4] = test system: p-4E-BP; assay: HMC-1-stimulated p-4E-BP level in keloid fibroblasts (Western blot); settings: keloid fibroblasts pretreated 1 h, co-culture 1 h
Experimental: as §1

[5] = test system: type I collagen in keloid fibroblasts; assay: Basal (constitutive) type I collagen level in keloid fibroblasts (Western blot); settings: keloid fibroblasts alone, 24 h
Experimental: Equal amount of cell lysates (100 μg) was subjected to Western blot analysis with an anti-type I collagen antibody as described in Materials and Methods. […] (c) KFs were cultured in the presence of different concentrations of GTE or EGCG for 24 h, and type I collagen levels were determined by Western blot. (d) Denssitometric analysis of results from c. […] The results represent three independent experiments and expressed as the mean ±SD.
To determine type I collagen, and phosphorylated ERK1/2 and Akt levels, cells were solubilized in lysis buffer (50 mM Tris-HCl, pH 7.5, 150 mM NaCl, 5 mM EDTA, 200 μM Na3VO4, 50 mM NaF, 0.5% Triton X-100) supplemented with 10 mM dithiothreitol (DTT), 200 FM phenylmethylsulfonyl fluoride (PMSF) and protease inhibitor cocktails (Sigma). Total protein concentrations of whole cell lysates were determined using BioRad BCA method (PIERCE, Rockford, Ill.). Equal amounts of protein sampled from whole cell lysates were subjected to electrophoresis on 7.5%-10% sodium dodecyl sulfate (SDS)-polyacrylamide gels and electroblotted onto nitrocellulose membranes (Hybond ECL, Amersham Pharmacia). […]
To find out whether GTE and EGCG have any effects on the basal level of type I collagen in keloid fibroblasts, cells were cultured in the presence of different concentrations of GTE or EGCG for 24 hours and type I collagen levels were determined by Western blot.

[6] = test system: phosphorylated p38 MAPK; assay: HMC-1-stimulated phosphorylated p38 MAPK level in keloid fibroblasts (Western blot); settings: keloid fibroblasts pretreated 1 h, co-culture 1 h
Experimental: as §3, §4, §5

[7] = test system: type I collagen expression in keloid fibroblasts co-cultured with HMC-1 cells; assay: HMC-1-stimulated type I collagen expression in co-cultured keloid fibroblasts (Western blot); settings: pretreated 1 h, then co-culture with same density of HMC-1 cells (1:1) for 24 h
Experimental: as §2
To determine type I collagen, and phosphorylated ERK1/2 and Akt levels, cells were solubilized in lysis buffer (50 mM Tris-HCl, pH 7.5, 150 mM NaCl, 5 mM EDTA, 200 μM Na3VO4, 50 mM NaF, 0.5% Triton X-100) supplemented with 10 mM dithiothreitol (DTT), 200 FM phenylmethylsulfonyl fluoride (PMSF) and protease inhibitor cocktails (Sigma). Total protein concentrations of whole cell lysates were determined using BioRad BCA method (PIERCE, Rockford, Ill.). Equal amounts of protein sampled from whole cell lysates were subjected to electrophoresis on 7.5%-10% sodium dodecyl sulfate (SDS)-polyacrylamide gels and electroblotted onto nitrocellulose membranes (Hybond ECL, Amersham Pharmacia). After blocking with Tris-buffered saline (TBS)/5% skim milk, the membranes were incubated overnight at 4 °C with primary antibodies against human type I collagen, total or phosphorylated ERK1/2 (Thr202/Tyr204) or Akt (Ser473). Membranes were subsequently washed, incubated with a horseradish peroxidase (HRP) conjugated secondary:antibodies (1:2000) (Pierce, Rockford, Ill.) for 1 h at room temperature, and visualized using an enhanced chemiluminescent (ECL) detection.

[8] = test system: HMC-1 cells; assay: Cell viability by MTT assay, HMC-1 cells; settings: different concentrations, 24 h, normal conditions
[9] = test system: p-p70S6K; assay: HMC-1-stimulated p-p70S6K level in keloid fibroblasts (Western blot); settings: keloid fibroblasts pretreated 1 h, co-culture 1 h
Experimental: as §3, §4, §5

[10] = test system: keloid fibroblasts; assay: Cell viability by MTT assay, keloid fibroblasts; settings: different concentrations, 24 h, normal conditions

O=C(O[C@@H]1Cc2c(O)cc(O)cc2O[C@@H]1c1cc(O)c(O)c(O)c1)c1cc(O)c(O)c(O)c1 [EGCG, (−)-epigallocatechin-3-gallate]
phosphorylated Akt level stimulated by HMC-1 cells [1]: dose-dependent reduction | HMC-1-stimulated type I collagen mRNA messages (pro-COL1A1, COL1A2) in keloid fibroblasts [2]: dose-dependent reduction | phosphorylated ERK1/2 level stimulated by co-culture with HMC-1 cells [3]: did not have any obvious inhibitory effects | p-4E-BP level stimulated by HMC-1 cells [4]: dose-dependent reduction | constitutive (basal) expression of type I collagen in keloid fibroblasts [5]: inhibited the constitutive expression of type I collagen in a dose-dependent manner | phosphorylated p38 MAPK level stimulated by co-culture with HMC-1 cells [6]: did not have any obvious inhibitory effects | HMC-1-stimulated type I collagen expression (protein production) in keloid fibroblasts [7]: dose-dependent reduction | cell viability (MTT), HMC-1 cells [8]: No obvious changes in cell viability | p-p70S6K level stimulated by HMC-1 cells [9]: dose-dependent reduction | cell viability (MTT), keloid fibroblasts [10]: No obvious changes in cell viability

COc1cccc(-c2cc(=O)c3ccccc3o2)c1N [PD98059]
HMC-1-stimulated type I collagen expression (protein production) in keloid fibroblasts [7]: no obvious inhibitory effects

C[S+]([O-])c1ccc(-c2nc(-c3ccncc3)c(-c3ccc(F)cc3)[nH]2)cc1 (stereo not shown) [SB203580]
HMC-1-stimulated type I collagen expression (protein production) in keloid fibroblasts [7]: dose dependent inhibition

N#CC(=C(/N)Sc1ccccc1N)/C(C#N)=C(\N)Sc1ccccc1N [U0126]
HMC-1-stimulated type I collagen expression (protein production) in keloid fibroblasts [7]: no obvious inhibitory effects
